# Reference: patent US11267800B2, “Cyclohexyl acid triazole azines as LPA antagonists” (BRISTOL-MYERS SQUIBB COMPANY, priority 2017, dated 2022)
# Where a name gives a salt, the structure may show the parent alone.
# Molecular target: T1, human LPA1 (Homo sapiens, UniProt Q92633)
# T1 construct: expressed in transfected cells; host or cells: Chinese hamster ovary (CHO) cells
# Assay: LPA1 functional antagonist assay (calcium flux)
# Type: cell-based
# Conditions: CHO cells overexpressing human LPA1; inhibition of calcium flux induced by 10 nM LPA; read-out: hLPA1 IC50
# Outline: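 Dye-loaded CHO cells overexpressing human LPA1 (30 min, 37 °C) were preincubated 20 min at room temperature with compound (0.08 nM–5 μM; 0.5% DMSO; HBSS, 20 mM HEPES, 0.1% fatty-acid-free BSA), then stimulated with 10 nM LPA. IC50 is the concentration inhibiting 50% of LPA-induced calcium flux, from a 4-parameter logistic fit.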
# T1 sequence (Q92633 whole entry): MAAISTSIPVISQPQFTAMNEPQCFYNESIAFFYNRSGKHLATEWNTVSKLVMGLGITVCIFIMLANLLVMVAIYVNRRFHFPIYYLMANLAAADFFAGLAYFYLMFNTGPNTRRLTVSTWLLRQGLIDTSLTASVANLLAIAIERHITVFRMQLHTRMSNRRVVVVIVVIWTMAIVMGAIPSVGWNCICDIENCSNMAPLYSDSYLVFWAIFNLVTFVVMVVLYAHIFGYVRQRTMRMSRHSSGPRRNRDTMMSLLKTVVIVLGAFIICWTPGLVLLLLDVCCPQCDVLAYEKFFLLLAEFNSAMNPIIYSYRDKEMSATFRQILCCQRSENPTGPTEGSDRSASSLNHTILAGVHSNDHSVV
row,IC50,Compound
1,304 nM,CCCN(C)c1ccnc(NCc2c(-c3ccc(O[C@H]4CCC[C@H](C(=O)O)C4)c(C)n3)nnn2C)n1 [Example 46]
2,59 nM,"CCc1nc(CC)nc(NCc2c(-c3ccc(O[C@H]4CCC[C@H](C(=O)O)C4)c(C)n3)nnn2C)n1 [Example 203, (1S,3S)-3-((6-(5-(((4,6-Diethyl-1,3,5-triazin-2-yl)amino)methyl)-1-methyl-1H-1,2,3-triazol-4-yl)-2-methyl-pyridin-3-yl)oxy)cyclohexane-1-carboxylic acid]"
3,172 nM,Cc1nc(-c2nnn(C)c2CNc2nccc(OC3CCOC3)n2)ccc1O[C@H]1CCC[C@H](C(=O)O)C1 (stereo partly drawn) [Example 83]
4,61 nM,COCCCOc1cc(OCc2c(-c3ccc(O[C@H]4CCC[C@H](C(=O)O)C4)c(C)n3)nnn2C)ncn1 [Example 285]
5,1050 nM,Cc1nc(-c2nnn(C)c2CNc2cc(C(C)(C)C)ncn2)ccc1O[C@H]1CCC[C@H](C(=O)O)C1 [Example 23]
6,111 nM,"CCOc1cccc(Nc2c(-c3ccc(O[C@H]4CCC[C@H](C(=O)O)C4)cn3)nnn2C)n1 [Example 248, (1S,3S)-3-((6-(5-((6-ethoxypyridin-2-yl)amino)-1-methyl-1H-1,2,3-triazol-4-yl)pyridin-3-yl)oxy)cyclohexane-1-carboxylic acid]"
7,278 nM,Cc1nc(-c2nnn(C)c2CNc2ccnc(C(C)C)n2)ccc1O[C@H]1CCC[C@H](C(=O)O)C1 [Example 267]
8,159 nM,COc1nc(NCc2c(-c3ccc(O[C@H]4CCC[C@H](C(=O)O)C4)c(C)n3)nnn2C)ncc1F [Example 142]
9,62 nM,"CCCCc1nc(C)nc(NCc2c(-c3ccc(O[C@H]4CCC[C@H](C(=O)O)C4)c(C)n3)nnn2C)n1 [Example 209, (1S,3S)-3-((6-(5-(((4-Butyl-6-methyl-1,3,5-triazin-2-yl)amino)methyl)-1-methyl-1H-1,2,3-triazol-4-yl)-2-methylpyridin-3-yl)oxy)cyclohexane-1-carboxylic acid]"
10,116 nM,Cc1nc(-c2nnn(C)c2CNc2nccc(C(C)(F)F)n2)ccc1O[C@H]1CCC[C@H](C(=O)O)C1 [Example 133]
11,64 nM,"Cc1nc(-c2nnn(C)c2Nc2nccc(OCC3CC3)n2)ccc1O[C@H]1CCC[C@H](C(=O)O)C1 [Example 232, (1S,3S)-3-((6-(5-((4-(cyclopropyl-methoxy)pyrimidin-2-yl)amino)-1-methyl-1H-1,2,3-triazol-4-yl)-2-methylpyridin-3-yl)oxy)cyclohexane-1-carboxylic acid]"
12,208 nM,CCc1nc(-c2nnn(C)c2CNc2ccnc(OC3CC3)n2)ccc1O[C@H]1CCC[C@H](C(=O)O)C1 [Example 391]
13,225 nM,"CCCc1ncnc(NCc2c(-c3ccc(O[C@H]4CCC[C@H](C(=O)O)C4)c(C)n3)nnn2C)n1 [Example 195, (1S,3S)-3-((2-Methyl-6-(1-methyl-5-(((4-propyl-1,3,5-triazin-2-yl)amino)methyl)-1H-1,2,3-triazol-4-yl)pyridin-3-yl)oxy)cyclohexane-1-carboxylic acid]"
14,108 nM,"CCCCc1cnnc(NCc2c(-c3ccc(O[C@H]4CCC[C@H](C(=O)O)C4)c(C)n3)nnn2C)c1 [Example 189, (1S,3S)-3-((6-(5-(((5-Butylpyridazin-3-yl)amino)methyl)-1-methyl-1H-1,2,3-triazol-4-yl)-2-methylpyridin-3-yl)oxy)cyclohexane-1-carboxylic acid, bis TFA salt]"
15,102 nM,CCc1cc(CC)nc(NCc2c(-c3ccc(O[C@H]4CCC[C@H](C(=O)O)C4)c(C)n3)nnn2C)n1 [Example 129]
16,60 nM,Cc1nc(-c2nnn(C)c2COc2ccnc(C(F)F)c2)ccc1O[C@H]1CCC[C@H](C(=O)O)C1 [Example 308]
17,124 nM,Cc1nc(-c2nnn(C)c2CNc2ccnc(OC3CC(F)(F)C3)n2)ccc1O[C@H]1CCC[C@H](C(=O)O)C1 [Example 261]
18,99 nM,Cc1nc(-c2nnn(C)c2COc2cncc(C(F)(F)F)n2)ccc1O[C@H]1CCC[C@H](C(=O)O)C1 [Example 339]
19,28 nM,"Cc1nc(-c2nnn(C)c2CN(C)c2nccc(OC3CC3)n2)ccc1O[C@H]1CCC[C@H](C(=O)O)C1 [Example 253, (1S,3S)-3-((6-(5-(((4-cyclopropoxypyrimidin-2-yl)(methyl)amino)methyl)-1-methyl-1H-1,2,3-triazol-4-yl)-2-methylpyridin-3-yl)oxy)cyclohexane-1-carboxylic acid]"

row,Compound,IC50
1,"Cc1nc(-c2nnn(C)c2CNc2nnccc2OC2CCC2)ccc1O[C@H]1CCC[C@H](C(=O)O)C1 [Example 191, (1S,3S)-3-((6-(5-(((4-Cyclobutoxypyridazin-3-yl)amino)methyl)-1-methyl-1H-1,2,3-triazol-4-yl)-2-methylpyridin-3-yl)oxy)cyclohexane-1-carboxylic acid, bis TFA Salt]",103 nM

# System: UUO mice
# Assay: not given
# Conditions: cited from earlier work
row,Compound,development of renal fibrosis
1,Cc1noc(-c2ccc(CSCCC(=O)O)cc2)c1NC(=O)OC(C)c1ccccc1Cl (stereo not drawn) [Ki16425],closely resembled the profile of LPA1 (−/−) mice

# System: human foetal lung fibroblasts
# Assay: not given
# Conditions: Tager et al.; cited from earlier work
row,Compound,chemotaxis of human foetal lung fibroblasts induced by BAL from IPF patients
1,Cc1noc(-c2ccc(CSCCC(=O)O)cc2)c1NC(=O)OC(C)c1ccccc1Cl (stereo not drawn) [Ki16425],blocked

# System: pancreatic cancer cell lines
# Assay: not given
# Conditions: highly peritoneal metastatic pancreatic cancer cell line (Yamada et al.); cited from earlier work
row,Compound,LPA-induced and ascites-induced invasion activity
1,Cc1noc(-c2ccc(CSCCC(=O)O)cc2)c1NC(=O)OC(C)c1ccccc1Cl (stereo not drawn) [Ki16425],blocked

# Same assay, conditions: pancreatic cancer cell lines (Yamada et al.); cited from earlier work
row,Compound,in vitro migration in response to LPA and peritoneal fluid (ascites) from pancreatic cancer patients
1,Cc1noc(-c2ccc(CSCCC(=O)O)cc2)c1NC(=O)OC(C)c1ccccc1Cl (stereo not drawn) [Ki16425],effectively blocked

# System: nerve-injured mice
# Assay: not given
# Conditions: pretreatment, nerve-injured mice (Inoue et al.); cited from earlier work
row,Compound,allodynia and hyperalgesia
1,C[C@@H](N)[C@H]1CC[C@H](C(=O)Nc2ccncc2)CC1 [Example Y-27632],completely abolished

# System: mouse epithelial renal cell line, MCT
# Assay: not given
# Conditions: co-treatment with LPA, MCT cells; cited from earlier work
row,Compound,LPA-induced increase in expression of CTGF
1,Cc1noc(-c2ccc(CSCCC(=O)O)cc2)c1NC(=O)OC(C)c1ccccc1Cl (stereo not drawn) [Ki16425],almost completely suppressed

# System: IPF patients
# Assay: not given
# Conditions: 26-week clinical trial in IPF patients (Palmer et al.); cited from earlier work
row,Compound,rate of FVC (forced vital capacity) decline
1,Cc1noc(-c2ccc(-c3ccc(C4(C(=O)O)CC4)cc3)cc2)c1NC(=O)O[C@H](C)c1ccccc1 [BMS-986020],significantly reduce
